From patent publication US4404138A, “3-[2-(Azabicyclo) ethyl]-1,2,3,4-tetrahydro-5H-[1]benzopyrano[3,4-c]pyridin-5-ones” (Warner-Lambert Company, priority 1982, dated 1983)
Read-outs that look alike come from different tables or passages of the source.

Test system: pilocarpine-induced bronchospasm and salivary flow in mongrel dogs
Assay: Pilocarpine-induced bronchospasm and salivation in anesthetized mongrel dogs
Assay type: in vivo
Conditions: for ED50: Canis lupus familiaris, anesthetized dogs, pilocarpine nitrate 0.2 mg/kg/hr infusion, cumulative IV doses; for Pulmonary Selectivity*: value >1 indicates the compound is more potent as a bronchodilator than as an antisecretory agent
Experimental: In an additional testing procedure, mongrel dogs of either sex, 10.6 to 15.3 kg, are anesthetized with sodium pentobarbital, 30 mg/kg IV and then prepared for the monitoring of pulmonary mechanics. A Buxco pulmonary mechanics computer is used to calculate pulmonary resistance, dynamic compliance, and tidal volume from transpulmonary pressure and flow data. Respiratory rate, heart rate and mean arterial blood pressure are also monitored. The femoral vein is cannulated for the delivery of drugs.
Pilocarpine nitrate (0.2 mg/kg/hr) is than infused to induce a bronchospasm and salivary flow. […] Salivary output is collected from a catheterized Wharton's duct at five minute intervals. After salivation has stabilized, three control collections are taken at five minute intervals followed by a series of cumulative IV doses of test compound (1, 3, 10, 30, 100, 300, 1000, 3000, and 10,000 μg/kg) that are injected every five minutes for 45 minutes.
The percent inhibition of both the bronchospasm and salivation are calculated for each dose with a return to prepilocarpine resistance levels or cessation of salivation equal to a 100% inhibition.

[1] = inhibition of bronchospasm, read-out: ID50 μg/kg Bronchospasm
[2] = inhibition of salivation, read-out: ID50 μg/kg Salivation

| SMILES | ED50 [1] | ED50 [2] | Pulmonary Selectivity* |
| --- | --- | --- | --- |
| COc1ccc2c3c(c(=O)oc2c1)CN(CCN1CC2CCC(CC2)C1)CC3 [R1=H, R2=MeO, R3=H, X=drawing 14] | 35 µg/kg | 104 µg/kg | 3 |
| COc1ccc2c3c(c(=O)oc2c1)CN(CCN1CC2CCC1CC2)CC3 [R1=H, R2=MeO, R3=H, X=drawing 16] | 63 µg/kg | 102 µg/kg | 1.61 |
| COc1cc2oc(=O)c3c(c2cc1OC)CCN(CCN1CC2CCC(CC2)C1)C3 [R1=MeO, R2=MeO, R3=H, X=drawing 15] | 113 µg/kg | 530 µg/kg | 4.7 |
